Source: patent publication US20090118471A1, “NOVEL COUMARIN DERIVATIVES” (The University of Tokyo, priority 2006, published 2009)
Structures can show the parent of a compound that is named as a salt.

Key:
[1] = in 0.1 mol/L sulfuric acid solution; value taken as standard; cited from earlier work
[2] = Fluorescence intensity after reaction with peptides containing two neighboring cysteine residues; format: physicochemical; conditions: 5 μmol/L; after reaction with peptides containing two neighboring cysteine residues in the same molecule; sodium phosphate buffer pH 7.4, 0.5% DMSO
Experimental: (§1) Compound 8 at a concentration of 5 μmol/L was added with N-acetylcysteine (NAC), Ac-AECACRA-OH peptide, or Ac-AECAACRA-OH peptide (C-terminus is carboxyl group, N-terminus is acetyl group (Ac), and amino acids are represented by the single letter codes), and fluorescence intensity was measured. For the reaction mixture, a 100 mmol/L sodium phosphate buffer (pH=7.4, containing 0.5% dimethyl sulfoxide as a cosolvent) was used.

[3] = Fluorescence intensity after reaction with N-acetylcysteine; format: physicochemical; conditions: 5 μmol/L; after reaction with one molecule of cysteine (NAC); sodium phosphate buffer pH 7.4, 0.5% DMSO
Experimental: as §1

## C=C[C@H]1C[N@@]2CC[C@H]1C[C@H]2[C@H](O)c1ccnc2ccc(OC)cc12 [quinine sulfate]
[1]
  Fluorescence quantum yield (reference standard): 0.577

## O=C(Cc1cc(=O)oc2cc(O)ccc12)NC1CC(N2C(=O)C=CC2=O)CC(N2C(=O)C=CC2=O)C1 (stereo not drawn) [Compound 8]
[2]
  Fluorescence: intensely fluorescent adducts
[3]
  Fluorescence: substantially non-fluorescent
